Test results: patent US20230002387A1, “2-AMINO-S6-SUBSTITUTED THIOPURINE COMPOUNDS AS INHIBITORS OF THE ENPP1 PROTEIN” (ATEN PORUS LIFESCIENCES PVT. LTD., priority 2019, published 2023)

Target: T1, ENPP1 (Homo sapiens, UniProt P22413)
T1 sequence (P22413 1-925): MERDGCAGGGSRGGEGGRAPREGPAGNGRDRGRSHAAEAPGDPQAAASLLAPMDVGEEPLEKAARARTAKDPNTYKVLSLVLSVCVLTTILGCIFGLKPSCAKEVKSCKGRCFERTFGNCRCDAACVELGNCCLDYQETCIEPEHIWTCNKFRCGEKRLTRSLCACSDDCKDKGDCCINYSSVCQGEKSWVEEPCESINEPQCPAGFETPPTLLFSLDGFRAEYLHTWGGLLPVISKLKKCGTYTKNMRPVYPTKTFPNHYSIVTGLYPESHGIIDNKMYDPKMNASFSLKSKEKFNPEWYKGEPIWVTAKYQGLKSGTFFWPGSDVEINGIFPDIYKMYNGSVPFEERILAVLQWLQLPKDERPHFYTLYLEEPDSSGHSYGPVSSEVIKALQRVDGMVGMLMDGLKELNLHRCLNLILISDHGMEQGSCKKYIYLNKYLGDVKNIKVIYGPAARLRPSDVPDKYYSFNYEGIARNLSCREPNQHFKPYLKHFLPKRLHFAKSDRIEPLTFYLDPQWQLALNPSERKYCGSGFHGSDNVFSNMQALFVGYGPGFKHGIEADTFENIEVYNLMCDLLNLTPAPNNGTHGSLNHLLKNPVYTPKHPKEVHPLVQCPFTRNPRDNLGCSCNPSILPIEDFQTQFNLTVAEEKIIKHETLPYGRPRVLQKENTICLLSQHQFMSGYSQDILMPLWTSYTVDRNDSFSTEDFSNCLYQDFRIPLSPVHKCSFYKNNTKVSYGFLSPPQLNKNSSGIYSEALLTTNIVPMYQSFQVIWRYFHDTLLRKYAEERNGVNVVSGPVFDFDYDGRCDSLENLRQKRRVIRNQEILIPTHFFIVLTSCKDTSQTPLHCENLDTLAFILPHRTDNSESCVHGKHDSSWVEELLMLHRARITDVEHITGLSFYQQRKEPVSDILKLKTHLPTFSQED
Assay: Capillary electrophoresis-based NPP assay with ATP as a substrate (ENPP1 inhibition, Ki)
Type: biochemical
Details: bin of Table 2; Ki from IC50 by Cheng-Prusoff, 400 μM ATP
Method: Here, a Capillary Electrophoresis based method was used to determine the IC50 values for ENPP1 Inhibitors for ENNP1 protein.
The inhibitors synthesized were assessed for ENPP1 inhibitory potency against the natural substrate ATP. The enzyme inhibition assays were performed in 10 mM 2-(N-cyclohexylamino)-ethanesulfonic acid (CHES) buffer (pH 10.0) including 1 mM MgCl2, 2 mM CaCl2), and 400 μM of ATP, with different inhibitor concentrations. The reaction mixture was incubated with 20 ng human NPP1 at 37° C. for 30 min in a final volume of 100 μL, and the reactions were stopped by heating at 90° C. for 3 min. Finally, the reaction mixtures were directly measured by capillary electrophoresis (CE). The CE instrumentation and operating conditions were as follows: P/ACE MDQ capillary electrophoresis system (Beckman Instruments, Fullerton, Calif., USA) with a DAD detection system, polyacrylamide-coated capillaries of 40 cm effective length×[…] (id) obtained from CS Chromatographie GmbH (Langerwehe, Germany), 50 mM phosphate buffer (pH 6.5) as running buffer, electrokinetic injection (−6 kV, 60 s), separation voltage of −15 kV. The amounts of AMP produced were measured at 260 nm. Data collection and peak area analysis were performed by 32 Karat software obtained from Beckman Coulter (Fullerton, Calif., USA).
The IC50 values of test compounds were calculated by plotting data in the program Prism 5.0, and the Ki values were calculated from the IC50 values with the Cheng-Prusoff equation (Tables 2-4).

Row | Ki | SMILES
1 | ≤ 100 nM | CCOc1nc(NC(=O)[C@H](CC)Sc2nc(N)nc3nc[nH]c23)ncc1F [Compound 673]
2 | ≤ 100 nM | Nc1nc(SCC(=O)Nc2ccc(Cl)c(O)c2)c2[nH]cnc2n1 [Compound 207]
3 | ≤ 100 nM | COc1ccc(NC(=O)CSc2nc(N)nc3nc[nH]c23)cc1OC [Compound 46, 2-((2-amino-7H-purin-6-yl)thio)-N-(3,4-dimethoxyphenyl)acetamide]
4 | ≤ 100 nM | CC[C@@H](Sc1nc(N)nc2nc[nH]c12)C(=O)Nc1nc(Cl)cc(OC)n1 [Compound 496]
5 | ≤ 100 nM | COc1nc(NC(=O)[C@@H](Cc2ccccc2)Sc2nc(N)nc3nc[nH]c23)ncc1Cl [Compound 551]
6 | ≤ 100 nM | CCOc1nc(NC(=O)[C@H](CC)Sc2nc(N)nc3nc[nH]c23)ncc1Cl [Compound 677]
7 | ≤ 100 nM | COc1nc(NC(=O)[C@H](Sc2nc(N)nc3nc[nH]c23)C(C)C)ncc1Br [Compound 514]
8 | ≤ 100 nM | CCOc1nc(NC(=O)[C@H](CC)Sc2nc(N)nc3nc[nH]c23)ncc1Br [Compound 678]
9 | ≤ 100 nM | COc1ccnc(NC(=O)CSc2nc(N)nc3nc[nH]c23)c1 [Compound 109]
10 | ≤ 100 nM | CCOc1nc(NC(=O)[C@@H](Sc2nc(N)nc3nc[nH]c23)C(C)C)ncc1F [Compound 679]
11 | ≤ 100 nM | COc1cc(NC(=O)[C@@H](Sc2nc(N)nc3nc[nH]c23)C(C)C)ccc1O [Compound 270]
12 | ≤ 100 nM | COc1nc(NC(=O)[C@H](Cc2ccccc2)Sc2nc(N)nc3nc[nH]c23)ncc1Br [Compound 555]
13 | ≤ 100 nM | COc1ccnc(NC(=O)[C@H](Cc2ccccc2)Sc2nc(N)nc3nc[nH]c23)n1 [Compound 517]
14 | ≤ 100 nM | COc1nc(NC(=O)[C@@H](Sc2nc(N)nc3nc[nH]c23)C(C)C)ncc1Br [Compound 515]
15 | ≤ 100 nM | COc1ccnc(NC(=O)[C@H](Sc2nc(N)nc3nc[nH]c23)C(C)C)n1 [Compound 511]
16 | ≤ 100 nM | COc1ccnc(NC(=O)CSc2nc(N)nc3nc[nH]c23)n1 [Compound 201]
17 | ≤ 100 nM | Nc1nc(SCC(=O)Nc2ccc(O)c(Br)c2)c2[nH]cnc2n1 [Compound 194]
18 | ≤ 100 nM | COc1ccnc(NC(=O)[C@H](CCc2ccccc2)Sc2nc(N)nc3nc[nH]c23)n1 [Compound 506]
19 | ≤ 100 nM | Nc1nc(SCC(=O)Nc2ccc3nccnc3c2)c2[nH]cnc2n1 [Compound 185]
20 | ≤ 100 nM | COc1ccc(NC(=S)CSc2nc(N)nc3nc[nH]c23)cc1OC [Compound 355]
21 | ≤ 100 nM | CCOc1nc(NC(=O)[C@@H](Sc2nc(N)nc3nc[nH]c23)C(C)C)ncc1Br [Compound 681]
22 | ≤ 100 nM | CC[C@@H](Sc1nc(N)nc2nc[nH]c12)C(=O)Nc1nccc(OC)n1 [Compound 389]
23 | ≤ 100 nM | CC[C@@H](Sc1nc(N)nc2nc[nH]c12)C(=O)Nc1cc(OC)ccn1 [Compound 471]
24 | ≤ 100 nM | COc1nc(NC(=O)C2(Sc3nc(N)nc4nc[nH]c34)CCC2)ncc1Br [Compound 558]
25 | ≤ 100 nM | COc1ccc(C(=O)NCCSc2nc(N)nc3nc[nH]c23)cc1OC [Compound 148, N-(2-((2-amino-7H-purin-6-yl)thio)ethyl)-3,4-dimethoxybenzamide]

Row | Ki | SMILES
26 | ≤ 100 nM | CC[C@H](Sc1nc(N)nc2nc[nH]c12)C(=O)Nc1ncc(Br)c(OC)n1 [Compound 509]
27 | ≤ 100 nM | COc1nc(NC(=O)C(C)(C)Sc2nc(N)nc3nc[nH]c23)ncc1F [Compound 529]
28 | ≤ 100 nM | COc1ccc(NC(=O)[C@@H](C)Sc2nc(N)nc3nc[nH]c23)nc1OC [Compound 490]
29 | ≤ 100 nM | CC[C@H](Sc1nc(N)nc2nc[nH]c12)C(=O)Nc1ncc(Cl)c(OC)n1 [Compound 609]
30 | ≤ 100 nM | COc1ccc(NC(=O)CSc2nc(N)nc3nc[nH]c23)nc1OC [Compound 160]
31 | ≤ 100 nM | Nc1nc(SCC(=O)Nc2ccc3c(c2)OCO3)c2[nH]cnc2n1 [Compound 78]
32 | ≤ 100 nM | COc1nc(NC(=O)[C@H](Cc2ccccc2)Sc2nc(N)nc3nc[nH]c23)ncc1Cl [Compound 554]
33 | ≤ 100 nM | COc1ccnc(NC(=O)[C@@H](CCc2ccccc2)Sc2nc(N)nc3nc[nH]c23)n1 [Compound 507]
34 | ≤ 100 nM | COc1nc(NC(=O)[C@@H](Cc2ccccc2)Sc2nc(N)nc3nc[nH]c23)ncc1Br [Compound 552]
35 | ≤ 100 nM | COc1ccnc(NC(=O)[C@@H](Sc2nc(N)nc3nc[nH]c23)C(C)C)n1 [Compound 510]
36 | ≤ 100 nM | COc1ccnc(NC(=O)C(C)(C)Sc2nc(N)nc3nc[nH]c23)n1 [Compound 504]
37 | ≤ 100 nM | CCOc1nc(NC(=O)[C@@H](CC)Sc2nc(N)nc3nc[nH]c23)ncc1Br [Compound 712]
38 | ≤ 100 nM | CC(C)Oc1ccnc(NC(=O)C(C)(C)Sc2nc(N)nc3nc[nH]c23)n1 [Compound 534]
39 | ≤ 100 nM | COc1ccnc(NC(=O)[C@H](C)Sc2nc(N)nc3nc[nH]c23)n1 [Compound 487]
40 | ≤ 100 nM | Nc1nc(SCC(=S)Nc2ccc(O)c(C(=O)O)c2)c2[nH]cnc2n1 [Compound 408]
41 | ≤ 100 nM | COc1ccnc(NC(=O)[C@@H](C)Sc2nc(N)nc3nc[nH]c23)n1 [Compound 486]
42 | ≤ 100 nM | CC(C)Oc1nc(NC(=O)C(C)(C)Sc2nc(N)nc3nc[nH]c23)ncc1Br [Compound 543]
43 | ≤ 100 nM | CC[C@@H](Sc1nc(N)nc2nc[nH]c12)C(=O)Nc1ncc(Cl)c(OC)n1 [Compound 608]
44 | ≤ 100 nM | Cc1nc2cc(NC(=O)CSc3nc(N)nc4nc[nH]c34)ccc2s1 [Compound 182]
45 | ≤ 100 nM | COc1ccnc(NC(=O)[C@@H](Cc2ccccc2)Sc2nc(N)nc3nc[nH]c23)n1 [Compound 516]
46 | ≤ 100 nM | CC[C@@H](Sc1nc(N)nc2nc[nH]c12)C(=O)Nc1ncc(Br)c(OC)n1 [Compound 508]
47 | ≤ 100 nM | CC(C)[C@H](Sc1nc(N)nc2nc[nH]c12)C(=O)Nc1ccc(O)c(C(=O)O)c1 [Compound 269]
48 | ≤ 100 nM | CCC(Sc1nc(N)nc2nc[nH]c12)C(=O)Nc1ccc(O)c(C(=O)O)c1 (stereo not shown) [Compound 249]
49 | ≤ 100 nM | COc1ccc(NC(=O)CSc2nc(N)nc3nc[nH]c23)cc1Cl [Compound 128]
50 | ≤ 100 nM | Nc1nc(SCC(=O)Nc2ccc3ncsc3c2)c2[nH]cnc2n1 [Compound 181]

Same assay, conditions: bin of Table 4; Ki from IC50 by Cheng-Prusoff, 400 μM ATP

Row | Ki | SMILES
51 | ≥ 1000 nM | COc1ccc(NC(=O)CSc2ncnc3[nH]cnc23)cc1OC [Compound 45]
52 | ≥ 1000 nM | Nc1nc(SCC(=O)Nc2ccc3c(c2)OC(F)(F)O3)c2[nH]cnc2n1 [Compound 90]
53 | ≥ 1000 nM | COc1ccc(NC(=O)CSc2nc(N)nc3nc[nH]c23)cc1C(=O)O [Compound 144]
54 | ≥ 1000 nM | COc1ccc(NC(=O)Cn2nnc3ncccc32)cc1OC [Compound 35]
55 | ≥ 1000 nM | COc1cc2ncc(Nc3cc(S(N)(=O)=O)ccc3C)nc2cc1OC [Compound 8]
56 | ≥ 1000 nM | COc1ccc(CNC(=O)CSc2nc(N)nc3nc[nH]c23)cc1OC [Compound 105]
57 | ≥ 1000 nM | COc1ccc(NC(=O)CSc2nc(N)nc3nc[nH]c23)cc1 [Compound 107]
58 | ≥ 1000 nM | Cc1ccc(S(N)(=O)=O)cc1NC(=O)Cn1cnc2ncnc(N)c21 [Compound 30]
59 | ≥ 1000 nM | CC(C)(Sc1nc(N)nc2nc[nH]c12)C(=O)Nc1ccc(O)c(C(=O)O)c1 [Compound 251]
60 | ≥ 1000 nM | COc1ccc(NC(=O)Cn2cnc3cnccc32)cc1OC [Compound 11]
61 | ≥ 1000 nM | COc1cc2ncc(SCC(=O)Nc3cc(S(N)(=O)=O)ccc3C)nc2cc1OC [Compound 36]
62 | ≥ 1000 nM | Nc1nc(SCC(=O)NCc2ccccc2)c2[nH]cnc2n1 [Compound 103]
63 | ≥ 1000 nM | COc1ccc(NC(=O)CSc2nc(N)nc3ncn(C)c23)cc1OC [Compound 98]
64 | ≥ 1000 nM | CCOc1ccc(NC(=O)CSc2nc(N)nc3nc[nH]c23)cc1OCC [Compound 84]
